In PubChem BioAssay AID248 (DTP/NCI, 2004):
“And” between values parts separate entries of the source, which are not always exact repeats. Equal values may be shown once. Toxic doses and inconclusive results are not listed.

Test system: L1210 leukemia ip in BDF1 mice, survival T/C
Test: NCI In Vivo Anticancer Drug Screen. Data for tumor model L1210 Leukemia (intraperitoneal) in B6D2F1 (BDF1) mice
Conditions: endpoint: mean survival time, higher = longer survival
Method in brief: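 Survival endpoint. Drug-treated group vs vehicle group, expressed as T divided by C. Tumor passaged by transplantation.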

[1] = dose: 100.0 mg/kg/injection, schedule: Q01DX001 (ip), vehicle: Klucel (hydroxypropylcellulose) (HPC)
[2] = dose: 200.0 mg/kg/injection, schedule: Q01DX001 (ip), vehicle: Klucel (hydroxypropylcellulose) (HPC)
[3] = dose: 400.0 mg/kg/injection, schedule: Q01DX001 (ip), vehicle: Klucel (hydroxypropylcellulose) (HPC)
[4] = dose: 100.0 mg/kg/injection, schedule: Q04DX003 (ip), vehicle: Klucel (hydroxypropylcellulose) (HPC)
[5] = dose: 200.0 mg/kg/injection, schedule: Q04DX003 (ip), vehicle: Klucel (hydroxypropylcellulose) (HPC)
[6] = dose: 400.0 mg/kg/injection, schedule: Q04DX003 (ip), vehicle: Klucel (hydroxypropylcellulose) (HPC)
[7] = dose: 100.0 mg/kg/injection, schedule: Q01DX001 (ip), vehicle: saline
[8] = dose: 100.0 mg/kg/injection, schedule: Q01DX009 (ip), vehicle: Klucel (hydroxypropylcellulose) (HPC)
[9] = dose: 200.0 mg/kg/injection, schedule: Q01DX009 (ip), vehicle: Klucel (hydroxypropylcellulose) (HPC)
[10] = dose: 200.0 mg/kg/injection, schedule: Q04DX002 (ip), vehicle: Klucel (hydroxypropylcellulose) (HPC)
[11] = dose: 400.0 mg/kg/injection, schedule: Q01DX009 (ip), vehicle: Klucel (hydroxypropylcellulose) (HPC)
[12] = dose: 400.0 mg/kg/injection, schedule: Q04DX002 (ip), vehicle: Klucel (hydroxypropylcellulose) (HPC)
[13] = dose: 100.0 mg/kg/injection, schedule: Q01DX001 (ip), vehicle: carboxymethylcellulose (CMC)
[14] = dose: 200.0 mg/kg/injection, schedule: Q01DX009 (ip), vehicle: carboxymethylcellulose (CMC)
[15] = dose: 400.0 mg/kg/injection, schedule: Q01DX001 (ip), vehicle: carboxymethylcellulose (CMC)
[16] = dose: 200.0 mg/kg/injection, schedule: Q01DX001 (ip), vehicle: carboxymethylcellulose (CMC)
[17] = dose: 50.0 mg/kg/injection, schedule: Q01DX009 (ip), vehicle: saline with Tween-80
[18] = dose: 100.0 mg/kg/injection, schedule: Q01DX009 (ip), vehicle: saline with Tween-80
[19] = dose: 200.0 mg/kg/injection, schedule: Q01DX001 (ip), vehicle: saline
[20] = dose: 400.0 mg/kg/injection, schedule: Q01DX001 (ip), vehicle: saline

CCOc1ccc(N=Nc2c(O)n(-c3ccccc3)c(=S)n(-c3ccccc3)c2=O)cc1
T/C [1]: 96 % of control | T/C [2]: 107 % of control | T/C [3]: 100 % of control

CCCC(C(=O)c1ccc(OC)cc1)C(O)(C(F)(F)F)C(F)(F)F (stereo not drawn)
T/C [4]: 91 % of control | T/C [5]: 98 % of control | T/C [6]: 100 % of control

Nc1ccc(-c2ccc(-n3cccc3)cc2)cc1
T/C (dose: 25.0 mg/kg/injection, schedule: Q01DX001 (ip), vehicle: saline): 100 % of control | T/C (dose: 50.0 mg/kg/injection, schedule: Q01DX001 (ip), vehicle: saline): 96 % of control | T/C [7]: 109 % of control

Cc1cccc(C(O)c2cnc(C)n2Cc2ccccc2)c1 (stereo not drawn)
T/C [1]: 90 % of control | T/C [8]: 100 % of control and 86 % of control | T/C (dose: 100.0 mg/kg/injection, schedule: Q04DX002 (ip), vehicle: Klucel (hydroxypropylcellulose) (HPC)): 108 % of control and 89 % of control | T/C [4]: 92 % of control | T/C [2]: 100 % of control | T/C [9]: 97 % of control and 89 % of control | T/C [10]: 96 % of control | T/C [5]: 96 % of control | T/C [3]: 97 % of control | T/C [11]: 93 % of control and 97 % of control | T/C [12]: 93 % of control and 101 % of control | T/C [6]: 94 % of control

O=C1c2ccccc2C2(c3ccccc31)C(C(=O)c1ccccc1)C2C(=O)c1ccccc1 (stereo not drawn)
T/C (dose: 75.0 mg/kg/injection, schedule: Q01DX001 (ip), vehicle: carboxymethylcellulose (CMC)): 94 % of control | T/C (dose: 150.0 mg/kg/injection, schedule: Q01DX001 (ip), vehicle: carboxymethylcellulose (CMC)): 96 % of control | T/C (dose: 300.0 mg/kg/injection, schedule: Q01DX001 (ip), vehicle: carboxymethylcellulose (CMC)): 91 % of control

COC1C(CO)OC(n2cnc3c(=S)nc(N)[nH]c32)C1O (stereo not drawn)
T/C (dose: 25.0 mg/kg/injection, schedule: Q01DX009 (ip), vehicle: carboxymethylcellulose (CMC)): 105 % of control | T/C (dose: 25.0 mg/kg/injection, schedule: Q01DX009 (ip), vehicle: saline): 100 % of control | T/C (dose: 50.0 mg/kg/injection, schedule: Q01DX009 (ip), vehicle: carboxymethylcellulose (CMC)): 103 % of control | T/C (dose: 50.0 mg/kg/injection, schedule: Q01DX009 (ip), vehicle: saline): 116 % of control | T/C [13]: 111 % of control | T/C (dose: 100.0 mg/kg/injection, schedule: Q01DX009 (ip), vehicle: saline): 157 % of control | T/C [14]: 155 % of control | T/C (dose: 200.0 mg/kg/injection, schedule: Q01DX009 (ip), vehicle: saline): 168 % of control | T/C [15]: 154 % of control and 158 % of control

CN1C(=O)c2ccccc2C1(N)c1ccccc1 (stereo not drawn)
T/C [8]: 90 % of control | T/C [9]: 105 % of control | T/C [11]: 100 % of control

CCCCCCCCC(=O)N1CCC(C)CC1
T/C [10]: 106 % of control | T/C [12]: 95 % of control

CN(Cc1ccccc1Cl)C(=O)Nc1cccc(Cl)c1
T/C [8]: 97 % of control | T/C [9]: 103 % of control | T/C [11]: 114 % of control

S=C(Nc1ccc(Br)cc1)NC1CCCCC1
T/C (dose: 75.0 mg/kg/injection, schedule: Q01DX001 (ip), vehicle: other): 88 % of control | T/C (dose: 150.0 mg/kg/injection, schedule: Q01DX001 (ip), vehicle: other): 93 % of control | T/C (dose: 300.0 mg/kg/injection, schedule: Q01DX001 (ip), vehicle: other): 95 % of control

CCCCCC1SC1CC1SC1CCCCCCCC(=O)N(CCCC)CCCC (stereo not drawn)
T/C (dose: 30.0 mg/kg/injection, schedule: Q01DX001 (ip), vehicle: saline): 102 % of control | T/C [7]: 96 % of control | T/C (dose: 300.0 mg/kg/injection, schedule: Q01DX001 (ip), vehicle: saline): 89 % of control

CC(C)(Oc1ccc(Cl)cc1Cl)C(=O)O
T/C (dose: 100.0 mg/kg/injection, schedule: Q01DX009 (ip), vehicle: gum acacia): 90 % of control

OCC1CCC(n2cnc3c(=S)nc[nH]c32)C1 (stereo not drawn)
T/C [13]: 102 % of control | T/C [16]: 102 % of control | T/C [15]: 96 % of control

O=c1[nH]c2cc(Cl)ccc2c(CCl)c1Cl
T/C (dose: 25.0 mg/kg/injection, schedule: Q01DX009 (ip), vehicle: saline with Tween-80): 92 % of control | T/C [17]: 94 % of control | T/C [18]: 89 % of control | T/C (dose: 100.0 mg/kg/injection, schedule: Q04DX003 (ip), vehicle: acetone): 100 % of control

Cc1cc(CC(=O)c2ccccc2)[nH]c(=O)c1
T/C [7]: 103 % of control | T/C [19]: 101 % of control | T/C [20]: 101 % of control

CCN(C(=O)Nc1ccc(SC)cc1)c1ccccc1
T/C [8]: 103 % of control | T/C [9]: 108 % of control

CCc1cc(CC)c(/C(Cl)=C/C(=O)NCC(=O)O)c(CC)c1Br
T/C (dose: 75.0 mg/kg/injection, schedule: Q04DX003 (ip), vehicle: Klucel (hydroxypropylcellulose) (HPC)): 95 % of control | T/C (dose: 150.0 mg/kg/injection, schedule: Q04DX003 (ip), vehicle: Klucel (hydroxypropylcellulose) (HPC)): 93 % of control | T/C (dose: 300.0 mg/kg/injection, schedule: Q04DX003 (ip), vehicle: Klucel (hydroxypropylcellulose) (HPC)): 87 % of control

CCCCCCCCCCCC(=O)c1ccccc1
T/C [8]: 86 % of control | T/C [9]: 91 % of control | T/C [11]: 94 % of control

CC(=O)Nc1ccc(Cc2ccc(Cl)cc2)cc1
T/C [7]: 95 % of control | T/C [19]: 98 % of control

CCCCCCC(=O)N(CC(C)C)CC(C)C
T/C [13]: 102 % of control | T/C (dose: 100.0 mg/kg/injection, schedule: Q01DX009 (ip), vehicle: carboxymethylcellulose (CMC)): 93 % of control and 106 % of control | T/C (dose: 100.0 mg/kg/injection, schedule: Q04DX002 (ip), vehicle: carboxymethylcellulose (CMC)): 97 % of control | T/C (dose: 100.0 mg/kg/injection, schedule: Q04DX003 (ip), vehicle: carboxymethylcellulose (CMC)): 109 % of control | T/C [16]: 100 % of control | T/C [14]: 104 % of control and 90 % of control | T/C (dose: 200.0 mg/kg/injection, schedule: Q04DX002 (ip), vehicle: carboxymethylcellulose (CMC)): 102 % of control | T/C (dose: 200.0 mg/kg/injection, schedule: Q04DX003 (ip), vehicle: carboxymethylcellulose (CMC)): 102 % of control | T/C [15]: 90 % of control | T/C (dose: 400.0 mg/kg/injection, schedule: Q04DX002 (ip), vehicle: carboxymethylcellulose (CMC)): 100 % of control | T/C (dose: 400.0 mg/kg/injection, schedule: Q04DX003 (ip), vehicle: carboxymethylcellulose (CMC)): 100 % of control

CCOCCOCCC(=O)OC
T/C (dose: 62.5 mg/kg/injection, schedule: Q01DX001 (ip), vehicle: Klucel (hydroxypropylcellulose) (HPC)): 95 % of control | T/C (dose: 125.0 mg/kg/injection, schedule: Q01DX001 (ip), vehicle: Klucel (hydroxypropylcellulose) (HPC)): 89 % of control | T/C (dose: 250.0 mg/kg/injection, schedule: Q01DX001 (ip), vehicle: Klucel (hydroxypropylcellulose) (HPC)): 113 % of control

NCc1ccc[n+]([O-])c1
T/C (dose: 12.5 mg/kg/injection, schedule: Q04DX002 (ip), vehicle: saline with Tween-80): 97 % of control | T/C (dose: 25.0 mg/kg/injection, schedule: Q04DX002 (ip), vehicle: saline with Tween-80): 105 % of control | T/C (dose: 50.0 mg/kg/injection, schedule: Q04DX002 (ip), vehicle: saline with Tween-80): 102 % of control and 118 % of control | T/C (dose: 200.0 mg/kg/injection, schedule: Q04DX002 (ip), vehicle: saline with Tween-80): 89 % of control

NNS(=O)(=O)c1ccc(OCC(=O)O)cc1
T/C [8]: 98 % of control | T/C [4]: 102 % of control | T/C [9]: 94 % of control | T/C [5]: 98 % of control | T/C [11]: 94 % of control | T/C [6]: 98 % of control

Nc1[nH]c(=O)[nH]c(=O)c1N=Nc1ccc(S(=O)(=O)Nc2ccccn2)cc1
T/C [7]: 98 % of control | T/C [19]: 96 % of control | T/C [20]: 104 % of control

S=C(NC1CC2C=CC1C2)N1CCCCC1 (stereo not drawn)
T/C [17]: 106 % of control | T/C [18]: 100 % of control | T/C (dose: 200.0 mg/kg/injection, schedule: Q01DX009 (ip), vehicle: saline with Tween-80): 95 % of control
